Measured values taken from patent US6911319B2, “Methods and kits for detecting protein kinases” (Lumitech (UK) Limited, priority 2000, dated 2005).
Blank lines part the entries; values can stand above or below the compound they belong to.

Assays:
Type in all cases: biochemical
JNK2α2 = biological target: T1, JNK2α2 (Homo sapiens, UniProt P45984); assay: Bioluminescent protein kinase assay, JNK2α2 with ATF-2 as substrate
T1 construct: purchased Upstate Discovery
Experimental: The lower concentration had little effect, however 5 μM caused approximately 50% inhibition after 30 minutes at 30° C.
The above assay was performed in 200 μl volumes in plastic tubes in, a 30° C. waterbath. At each time point 20 μl samples were removed from the tubes and added to wells of a 96 well plate, followed by the addition of 20 μl of ATP detection reagent. The final concentration of ATP used was 12.5 μM, with JNK2α2 at 1.25 μM and ATF-2 at 2.55 μM.

[1] = biological target: luciferase-luciferin reaction (Photinus pyralis, UniProt P08659); assay: Effect of inhibitor on the bioluminescent ATP detection system; details: even at the highest concentration of the inhibitor; 10 μM ATP, 100 μl volumes, 96 well plate
Sequence of luciferase-luciferin reaction (P08659 whole entry): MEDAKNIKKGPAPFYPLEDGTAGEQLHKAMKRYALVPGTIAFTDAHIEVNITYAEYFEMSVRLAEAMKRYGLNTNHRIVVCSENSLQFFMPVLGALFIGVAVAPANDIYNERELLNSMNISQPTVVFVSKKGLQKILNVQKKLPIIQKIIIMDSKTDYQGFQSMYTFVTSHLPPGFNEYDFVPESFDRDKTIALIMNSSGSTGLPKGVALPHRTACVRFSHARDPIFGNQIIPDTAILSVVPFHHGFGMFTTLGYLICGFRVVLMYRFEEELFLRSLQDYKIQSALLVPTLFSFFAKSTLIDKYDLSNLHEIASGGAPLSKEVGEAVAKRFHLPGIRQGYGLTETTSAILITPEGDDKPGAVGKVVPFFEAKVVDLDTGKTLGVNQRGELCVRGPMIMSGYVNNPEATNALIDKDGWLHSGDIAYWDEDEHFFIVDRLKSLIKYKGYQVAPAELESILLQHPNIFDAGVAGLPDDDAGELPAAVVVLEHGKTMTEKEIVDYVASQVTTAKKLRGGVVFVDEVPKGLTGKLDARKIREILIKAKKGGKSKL
Experimental: We initially chose to look at a broad spectrum kinase inhibitor staurosporine (Calbiochem). Firstly, we tested the inhibitor (in DMSO) on the ATP detection reagent to ensure that the inhibitor would not affect the luciferase-luciferin reaction.
The results are presented as the means of triplicate wells±SD.
The experiment was performed using 10 μM ATP in 100 μl volumes in a 96 well plate with the addition of 20 μl of ATP detection reagent.

raf-1 = assay: Bioluminescent protein kinase assay, raf-1 activation of inactive MEK-1; details: two different concentrations of PD098059; inactive MEK-1 as substrate
MAPK-1/ERK-1 = biological target: T2, MAPK-1/ERK-1 (Homo sapiens, UniProt P27361); assay: Bioluminescent protein kinase assay, MAPK-1 with MBP as substrate; details: 30° C. for 30 minutes, MBP 2.72 μM
T2 construct: purchased UBI (Upstate Biotechnology)
T2 sequence (P27361 whole entry): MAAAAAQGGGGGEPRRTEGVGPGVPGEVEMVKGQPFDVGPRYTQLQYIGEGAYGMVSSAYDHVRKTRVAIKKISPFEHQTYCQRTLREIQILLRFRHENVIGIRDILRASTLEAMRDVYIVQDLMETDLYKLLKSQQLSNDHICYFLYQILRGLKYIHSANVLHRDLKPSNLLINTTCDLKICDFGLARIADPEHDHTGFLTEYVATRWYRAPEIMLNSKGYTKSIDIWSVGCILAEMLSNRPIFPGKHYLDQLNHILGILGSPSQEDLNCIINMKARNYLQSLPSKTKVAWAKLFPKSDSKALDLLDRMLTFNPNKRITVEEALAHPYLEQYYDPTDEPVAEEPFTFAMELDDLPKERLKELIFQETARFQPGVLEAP
Experimental: We also investigated the effect of genistein (Calbiochem) on MAPK-1 activity with MBP as substrate.
The assay buffer used was the same as for the SAP kinases (see above). The assay was performed in 100 μl volumes in a 96 well microtitre plate at 30° C. for 30 minutes. MBP (Calbiochem) was used at the same concentration as previously described (2.72 μM), with the activated MAPK1/ERK1 (UBI) used at a final concentration of 2.5U per100 μl reaction volume. The inhibitor was added at concentrations of 0, 0.1, 0.25, 0.5 and 1.0 μM, with 10 μl being added per well in 0.1% (v/v) DMSO.
For completeness, control samples with and without DMSO (0+DMSO and 0−DMSO, respectively) were also analysed to confirm that there was no effect of DMSO on the performance of the assay.

T1 sequence (P45984 whole entry): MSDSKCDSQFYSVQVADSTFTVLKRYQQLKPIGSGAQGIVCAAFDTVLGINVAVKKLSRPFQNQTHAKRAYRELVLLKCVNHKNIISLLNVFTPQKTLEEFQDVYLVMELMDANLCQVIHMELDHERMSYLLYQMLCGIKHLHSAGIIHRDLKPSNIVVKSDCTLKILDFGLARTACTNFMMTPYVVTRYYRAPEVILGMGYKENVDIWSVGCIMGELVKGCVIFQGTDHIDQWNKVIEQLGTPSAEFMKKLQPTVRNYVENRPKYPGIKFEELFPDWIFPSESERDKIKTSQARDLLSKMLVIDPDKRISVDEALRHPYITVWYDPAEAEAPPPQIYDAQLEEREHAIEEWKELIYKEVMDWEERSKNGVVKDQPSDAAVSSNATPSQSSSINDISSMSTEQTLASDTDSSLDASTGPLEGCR

Compound: CN[C@@H]1C[C@H]2O[C@@](C)([C@@H]1OC)n1c3ccccc3c3c4c(c5c6ccccc6n2c5c31)C(=O)NC4 [staurosporine]
inhibition of JNK2α2 activity (JNK2α2; 5 μM staurosporine, after 30 minutes at 30° C., ATP 12.5 μM, JNK2α2 1.25 μM, ATF-2 2.55 μM): approximately 50%
effect on JNK2α2 activity (JNK2α2; the lower of two staurosporine concentrations, 30° C.): little effect
effect upon light output [1]: no significant effect

light output in the presence of the inhibitor (indicating reduced kinase activity) (raf-1): concentration dependent increase
Compound: COc1cccc(-c2cc(=O)c3ccccc3o2)c1N [PD098059]

effect on MAPK-1 activity (MAPK-1/ERK-1; genistein 500 nM): an effect
effect on MAPK-1 activity (MAPK-1/ERK-1; genistein 1 μM): increased inhibitory activity
Compound: O=c1c(-c2ccc(O)cc2)coc2cc(O)cc(O)c12 [genistein]
